Among the test systems are 786-0; A549; COLO 205; EKVX; HT-29; Hs-578T; IGROV-1; MCF7; MDA-N; Malme-3M; NCI-H226; NCI-H522; OVCAR-3; OVCAR-8; PC-3; SF-539; SNB-75; SR; TK-10; U-251.
Holding throughout (assay): NCI anticancer screen, dose series, 48 h

The structures appear in SMILES notation.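 How tested: cells in 96-well plates exposed to compound for 48 hours at five concentrations. Abbreviation: GI50, concentration required for 50% inhibition of growth.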 Active and inactive are the calls of the source. Rule as the data show it: active = GI50 up to about 1.1 µM and inactive = higher.

With `Cn1c(=O)c2c(-c3ccccc3)onc2n(C)c1=O`, the GI50 in the assay with 786-0 is 29 µM (inactive); with A549 it was 21.3 µM (inactive); with COLO 205, 43.2 µM (inactive); in the assay on EKVX, 38.4 µM (inactive); in the assay with HT-29, 25.2 µM (inactive); in the assay with Hs-578T it was 24.5 µM (inactive). In addition, the GI50 was 20.3 µM (inactive) in the assay with IGROV-1; 12.9 µM (inactive) in the assay on MCF7; 50.2 µM (inactive) with MDA-N; 46.8 µM (inactive) in the assay with Malme-3M; > 100 µM (inactive) with NCI-H226; 27.9 µM (inactive) with NCI-H522. Further, the GI50 is 12.1 µM (inactive) in the assay on OVCAR-3; 24 µM (inactive) with OVCAR-8; 15 µM (inactive) with PC-3; 37.9 µM (inactive) with SF-539; 24.6 µM (inactive) in the assay on SNB-75; 36.6 µM (inactive) in the assay with SR. Further, the figures for the GI50 in the assay on TK-10 and in the assay with U-251 were 14.4 µM (inactive) and 28.1 µM (inactive), respectively.

In the case of `NS(=O)(=O)c1cc2c(cc1Cl)NCNS2(=O)=O` [HYDROCHLOROTHIAZIDE], the GI50 in the assay with 786-0, in the assay on A549, in the assay on COLO 205, in the assay with EKVX, in the assay with HT-29 and in the assay with Hs-578T was > 100 µM (inactive) throughout. Further, the GI50 in the assay on IGROV-1, with MCF7, in the assay with MDA-N, with Malme-3M, in the assay with NCI-H226 and in the assay with NCI-H522 was > 100 µM (inactive) throughout. Further, the GI50 with OVCAR-3, in the assay with OVCAR-8, in the assay on PC-3, in the assay with SF-539, in the assay on SNB-75 and with SR was > 100 µM (inactive) in each case. For the same compound, the GI50 in the assay on TK-10 and with U-251 was > 100 µM (inactive) throughout.

For `COc1ccc(/C=C/C(=O)c2cccc(C(=O)/C=C/c3ccc(OC)c(OC)c3)n2)cc1OC`, the GI50 with 786-0 is 11.9 µM (inactive); in the assay on A549, > 100 µM (inactive); in the assay on COLO 205, > 68.2 µM (inactive); in the assay with EKVX it was > 95.9 µM (inactive); in the assay on HT-29 it was 7.87 µM (inactive); with Hs-578T, > 48.2 µM (inactive). Also, the GI50 in the assay on IGROV-1 is 25.9 µM (inactive); in the assay on MCF7, 3.64 µM (inactive); in the assay on MDA-N, 15.7 µM (inactive); in the assay on Malme-3M it was 24.5 µM (inactive); with NCI-H226, > 100 µM (inactive); in the assay with NCI-H522, 4.75 µM (inactive). The GI50 is > 54.8 µM (inactive) in the assay on OVCAR-3; 3.27 µM (inactive) with OVCAR-8; 29 µM (inactive) in the assay on PC-3; 14.4 µM (inactive) in the assay on SF-539; > 100 µM (inactive) in the assay on SNB-75; 2.91 µM (inactive) with SR. The GI50 was > 100 µM (inactive) in the assay with TK-10 and 6.52 µM (inactive) in the assay with U-251.

For the compound `O=C1N[C@@H](c2c[nH]c3cc(Br)ccc23)C(=O)N[C@H]1c1c[nH]c2cc(Br)ccc12`, the GI50 with 786-0, with A549, with COLO 205, in the assay with EKVX, in the assay with HT-29 and in the assay with Hs-578T was > 100 µM (inactive) each time. Further, the GI50 in the assay with IGROV-1, in the assay with MCF7, in the assay with MDA-N, in the assay with Malme-3M, in the assay with NCI-H226 and in the assay with NCI-H522 was > 100 µM (inactive) in each case. For the same compound, the GI50 in the assay with OVCAR-3 was > 100 µM (inactive); with OVCAR-8 it was 29.9 µM (inactive); in the assay on PC-3 it was > 100 µM (inactive); with SF-539, 79.8 µM (inactive); in the assay with SNB-75, 9.4 µM (inactive); with SR, > 100 µM (inactive). Moreover, the GI50 in the assay with TK-10 is > 100 µM (inactive); in the assay on U-251, 25.8 µM (inactive).

In the case of `O=C1c2ccccc2C(=O)c2oc(Br)cc21`, the GI50 was 1.57 µM (inactive) with 786-0; 0.344 µM (active) in the assay with A549; 1.92 µM (inactive) with COLO 205; 1.94 µM (inactive) in the assay on EKVX; 1.6 µM (inactive) with HT-29; 0.327 µM (active) in the assay on Hs-578T. Moreover, the GI50 in the assay with IGROV-1 was 1.24 µM (inactive); in the assay with MCF7 it was 0.46 µM (active); with MDA-N it was 0.132 µM (active); in the assay on Malme-3M, 0.127 µM (active); in the assay with NCI-H226, 1.41 µM (inactive); in the assay with NCI-H522, 1.55 µM (inactive). In addition, the GI50 with OVCAR-3 was 1.02 µM (active); in the assay with OVCAR-8, 1.38 µM (inactive); in the assay on PC-3, 2.26 µM (inactive); with SF-539, 0.684 µM (active); in the assay with SNB-75, 0.256 µM (active); in the assay on SR, 1.09 µM (active). Besides, the figures for the GI50 in the assay on TK-10 and with U-251 were 2.9 µM (inactive) and 1.26 µM (inactive), respectively.

As to `COc1cc([N+](=O)[O-])c(S(=O)(=O)[O-])cc1-[n+]1nc(C(=O)Nc2ccccc2)nn1-c1ccc([N+](=O)[O-])c(S(=O)(=O)O)c1`, the GI50 in the assay on 786-0, in the assay with A549, with COLO 205, in the assay on EKVX, with HT-29 and in the assay with Hs-578T was > 100 µM (inactive) throughout. Moreover, the GI50 in the assay with IGROV-1, in the assay on MCF7, in the assay on MDA-N, in the assay with Malme-3M, in the assay on NCI-H226 and in the assay on NCI-H522 was > 100 µM (inactive) throughout. The GI50 in the assay on OVCAR-3, with PC-3, with SF-539, with SNB-75, in the assay with SR and in the assay on TK-10 was > 100 µM (inactive) in each case. Moreover, the GI50 in the assay with U-251 is > 100 µM (inactive).

As for `CC(C)[Si](OC/C(=C/COC(C)(C)C)[C@H]1CC=C(C(=O)c2ccccc2N2CN(C)C(=O)N(C)C2)C1)(C(C)C)C(C)C`, the GI50 in the assay on 786-0 was 6.61 µM (inactive); in the assay on A549, 9.53 µM (inactive); with COLO 205 it was 15.7 µM (inactive); with EKVX, 15.9 µM (inactive); in the assay with HT-29 it was 5.75 µM (inactive); with Hs-578T, 2.6 µM (inactive). Besides, the GI50 with IGROV-1 is 12.1 µM (inactive); in the assay with MCF7, 4.47 µM (inactive); in the assay on MDA-N, 2.18 µM (inactive); in the assay with Malme-3M it was 7.94 µM (inactive); in the assay with NCI-H226, 14.6 µM (inactive); in the assay on NCI-H522, 7.41 µM (inactive). In addition, the GI50 is 9.93 µM (inactive) with OVCAR-3; 5.55 µM (inactive) in the assay on OVCAR-8; 5.6 µM (inactive) in the assay on PC-3; 6.78 µM (inactive) with SF-539; 14.1 µM (inactive) in the assay on SNB-75; 2.14 µM (inactive) in the assay on SR. In addition, the GI50 in the assay on TK-10 and with U-251 was 10.1 µM (inactive) in each case.

Take `CC(=O)CN/C(C)=N/Nc1ccc([N+](=O)[O-])cc1[N+](=O)[O-]`: the GI50 is > 100 µM (inactive) with 786-0; > 100 µM (inactive) in the assay with A549; > 100 µM (inactive) with COLO 205; 52.2 µM (inactive) with EKVX; > 100 µM (inactive) with HT-29; > 100 µM (inactive) in the assay on Hs-578T. Moreover, the GI50 in the assay with IGROV-1 was > 100 µM (inactive); in the assay with MCF7, > 100 µM (inactive); with MDA-N, > 100 µM (inactive); in the assay with Malme-3M it was 70.5 µM (inactive); in the assay on NCI-H226, > 100 µM (inactive); in the assay on NCI-H522, > 100 µM (inactive). For the same compound, the GI50 in the assay with OVCAR-3, with OVCAR-8, in the assay on PC-3, in the assay with SF-539, in the assay with SNB-75 and in the assay with SR was > 100 µM (inactive) in each case. Further, the GI50 in the assay on U-251 is > 100 µM (inactive).

In the case of `COc1ccc(NC(C(N)=O)c2cc3cc(Br)ccc3nc2Cl)cc1` (stereo unspecified), the GI50 in the assay on 786-0 is > 100 µM (inactive); in the assay with A549 it was 91.8 µM (inactive); in the assay with COLO 205 it was 41 µM (inactive); in the assay on EKVX, 28.1 µM (inactive); in the assay on HT-29, > 100 µM (inactive); with Hs-578T it was > 100 µM (inactive). The GI50 with IGROV-1 is 25.5 µM (inactive); in the assay on MCF7, 32.4 µM (inactive); in the assay with MDA-N, 28.1 µM (inactive); in the assay with Malme-3M, > 100 µM (inactive); in the assay with NCI-H226, > 100 µM (inactive); in the assay with NCI-H522 it was 34 µM (inactive). Further, the GI50 in the assay on OVCAR-3 is 60.7 µM (inactive); in the assay on OVCAR-8 it was 57.1 µM (inactive); in the assay with PC-3 it was 44.6 µM (inactive); in the assay with SF-539, 19.1 µM (inactive); in the assay on SNB-75, 81.5 µM (inactive); in the assay on SR, 15.6 µM (inactive). In the assay on TK-10, the GI50 is 3.64 µM (inactive).

For `O=C1CSC(c2cc3cc(Br)ccc3nc2Cl)N1c1ccc(F)c(Cl)c1` (stereo unspecified), the GI50 is 27.4 µM (inactive) in the assay on 786-0; > 50 µM (inactive) in the assay with A549; > 50 µM (inactive) in the assay with COLO 205; 25.1 µM (inactive) in the assay on EKVX; > 50 µM (inactive) with HT-29; > 50 µM (inactive) in the assay on Hs-578T. The GI50 in the assay on IGROV-1 is 18.6 µM (inactive); in the assay with MCF7 it was 18.9 µM (inactive); in the assay with MDA-N, 48.3 µM (inactive); in the assay on Malme-3M, > 50 µM (inactive); in the assay with NCI-H226, 43.5 µM (inactive); in the assay on NCI-H522 it was 33.1 µM (inactive). For the same compound, the GI50 with OVCAR-3 was > 50 µM (inactive); in the assay on OVCAR-8, > 50 µM (inactive); in the assay on PC-3, 29.9 µM (inactive); with SF-539, 17.3 µM (inactive); with SNB-75 it was > 50 µM (inactive); in the assay with SR it was 12.7 µM (inactive). Moreover, the GI50 in the assay with TK-10 was > 50 µM (inactive).

Values taken from ChEMBL document CHEMBL1201862, “PubChem BioAssay data set” (2004).
